Source: patent publication US4333934A, “Imidazoquinoxalines and pyrroloquinoxalines” (Roussel Uclaf, priority 1979, dated 1982)
Where a name gives a salt, the structure may show the parent alone. Read-outs that look alike come from different tables or passages of the source.

Legend:
[1] = test system: Passive cutaneous anaphylaxis (PCA) in rats; experiment: Passive cutaneous anaphylaxis (PCA) in rats; type: in vivo, rat; details: for ED50: Rattus norvegicus
Text: Cutaneous anaphylaxis was induced in groups of male rats weighing 180-220 g by intradermal (ID) sensitization with antiserum followed three days later by systemic challenge with antigen. Evans blue dye injected with the antigen was used as a marker to assess the severity of the local response. Anti-allergic drugs inhibit this reaction and this method is described by OVARY [(1962) in "Passive cutaneous Anaphylaxis in Allergology" 358-367 Ed. Brown: Pergamon Press:].
1. Wash 120 grams Al (OH)3 gel in 140 ml of saline (use of a macerater facilitates mixing).
2. Centrifuge at 3,000 r.p.m. for about 10 minutes.
3. Resuspend the precipitate with 300 ml of albumen egg powder (1.3 mg/ml) in saline and allow to stand for 30 minutes.
4. Centrifuge at 3,000 r.p.m. for 10 minutes.
5. Weigh the wet precipitate and to each gram weight, add 1 ml of saline. Store in refrigerator. (Quantity sufficient for 60 rats for a 3 day sensitization programme).
1. 1 ml of the alum precipitated ovalbumen was injected subcutaneously into 180-220 gram rats on days 0,2,4.
2. The rats were bled on day 14 either by cardiac puncture or via the dorsal abdominal aorta.
3. Equal quantities of serum from each animal were pooled and thoroughly mixed.
4. 2 ml aliquots were stored at -20° C. in plastic tubes.
The antiserum for sensitization was diluted so that an ID injection of 0.1 ml into control animals gave an average score of a single spot of between 2.0-3.5 using a 5 point scoring system (0,1,2,3,4).
Rats were anaesthetised with Nembutal (40-60 mg/kg i.p.) and were then sensitized by four ID injections (0.1 ml each) on shaved backs. The animals were then left for a period of three days to develop sensitization.
The sensitized rats were dosed orally or intraveneously with the drug immediately prior to intraveneous challenge via the superficial penile vein with 1 ml of an antigen/Evans blue mixture (1 mg albumen egg powder in 0.5 ml saline plus 0.5 ml of 1% Evans blue). The injections were speeded up by using an automatic 1 ml self-filling glass syringe. The "challenged" rats were killed after 30 minutes, (usually pithed) and their skin on the dorsal surface was removed. The degree and area of blueing, proportional to the anaphylactic reaction was assessed on a five point scoring system.
1. Total scores for sites 1,2,3 and 4=X
2. Mean value of X for each group=X

[2] = Solubility remark (footnote of Table 1); type: physicochemical; details: all solvents
[3] = iv, read-out: ED50 (dose of drug giving 50% inhibition), i.v., dosed immediately prior to intravenous antigen challenge, male rats
[4] = po, read-out: ED50 (dose of drug giving 50% inhibition), p.o., dosed immediately prior to intravenous antigen challenge, male rats

SMILES | ED50 [1, 3] [mg/kg] | ED50 [1, 4] [mg/kg] | ED50 (dose of drug giving 50% inhibition), p.o. ([1]; p.o., dosed immediately prior to intravenous antigen challenge, male rats) [mg/kg] | solubility (in words) [2]
OCc1cn2c(cnc3ccccc32)n1 [2 (as hydrochloride), Imidazo-[1,2-a]-quinoxaline-2-methanol] | 0.16 | 0.068 |  | 
c1ccc2c(c1)ncc1nc(-c3nnn[nH]3)cn12 [3 (as hydrochloride), 2-(1H-tetrazol-5-yl)-imidazo-[1,2-a]-quinoxaline] |  | 0.084 | 0.089 | 
Clc1ccc2c(Cl)cc3nc(-c4nnn[nH]4)cn3c2c1 [11 Step C] |  |  |  | extremely insoluble in all solvents
OCc1cn2c(ccc3ccccc32)n1 [Example 5, Imidazo-[1,2-a]-quinoline-2-methanol] |  | 0.36 |  | 
O=Cc1cn2c(ccc3ccccc32)n1 [Example 6, Imidazo-[1,2-a]-quinoline-2-carboxaldehyde] |  | 0.09 |  | 
c1ccc2c(c1)ccc1nc(-c3nnn[nH]3)cn12 [Example 7, 2-(1H-tetrazol-5-yl)-imidazo-[1,2-a]-quinoline] | 0.026 | 0.105 |  | 
NCc1cn2c(ccc3ccccc32)n1 [Example 8, Imidazo-[1,2-a]-quinoline-2-methanamine dihydrochloride] | 0.11 | 0.98 |  | 
COc1ccc2ccc3nc(CO)cn3c2c1 [Example 12] | 0.27 | 0.24 |  | 
COc1ccc2ccc3nc(C=O)cn3c2c1 [Example 13] | 0.12 | 0.4 |  | 
COc1ccc2ccc3nc(-c4nnn[nH]4)cn3c2c1 [Example 14, 8-methoxy-2-(1H-tetrazol-5-yl)-imidazo-[1,2-a]-quinoline] | 0.01 | 0.12 |  | 
COc1ccc2ccc3nc(CN)cn3c2c1 [Example 15] | 3.39 |  |  | 
CCn1c(=O)c2nc(CO)cn2c2ccccc21 [Example 21, 5-ethyl-2-hydroxymethyl-imidazo-[1,2-a]-quinoxaline-4-(5H)-one] |  | 0.062 |  | 
CCn1c(=O)c2nc(C=O)cn2c2ccccc21 [Example 22, 4,5-dihydro-5-ethyl-4-oxo-imidazo-[1,2-a]-quinoxaline-2-carboxaldehyde] |  | 0.077 |  | 
CCn1c(=O)c2cc(CO)cn2c2ccccc21 [Example 24, 5-ethyl-2-hydroxymethyl-pyrrolo-[1,2-a]-quinoxaline-4(5H)-one] |  | 0.045 |  | 
CCn1c(=O)c2cc(-c3nnn[nH]3)cn2c2ccccc21 [Example 26, 5-ethyl-2-(1H-tetrazol-5-yl)-pyrrolo-[1,2-a]-quinoxaline-4(5H)-one] | 0.011 | 0.439 |  | 
c1ccc2c(c1)OCc1nc(-c3nnn[nH]3)cn1-2 [Example 30, 4H-2-(1H-tetrazol-5-yl)-imidazo-[2,1-c][1,4]-benzoxazine] | 0.33 |  |  | 
